The source of these data is US12291519B2, “2-hydroxycycloalkane-1-carbamoyl” (Idorsia Pharmaceuticals Ltd, priority 2019, dated 2025).

One experiment deals with human Gal-3 (hGal-3) (Homo sapiens (Human), UniProt P17931). In words: Competitive binding assay: biotinylated hGal-3 binding to microplate-adsorbed asialofetuin (ASF). The settings on record: Activity on hGal-3; binding of biotinylated hGal-3 to ASF-coated plates; mean values. The method in brief: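 Serially diluted compounds competed with biotinylated human Gal-3 for binding to plate-adsorbed asialofetuin over 3 h at 4 °C. Bound Gal-3 was detected with streptavidin-peroxidase (80 ng/mL, 1 h, 4 °C) and ABTS substrate. IC50 values are means of several measurements.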

A further experiment has as its target human Gal-1 (hGal-1). Description: Competitive binding assay: biotinylated hGal-1 binding to microplate-adsorbed asialofetuin (ASF). The settings on record: Activity on hGal-1; binding of biotinylated hGal-1 to ASF-coated plates; mean values. The gist of the method:
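Inhibition measured as loss of hGal-1 (biotinylated, 300–1000 ng/mL, wild type or Cys→Ser mutant) binding to adsorbed asialofetuin over 3 h at 4 °C. Bound lectin detected with streptavidin-HRP and ABTS (410 nm, 30–45 min); IC50 values averaged across repeat measurements.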

human Gal-1 (hGal-1), sequence (P09382 2-135 limits assumed): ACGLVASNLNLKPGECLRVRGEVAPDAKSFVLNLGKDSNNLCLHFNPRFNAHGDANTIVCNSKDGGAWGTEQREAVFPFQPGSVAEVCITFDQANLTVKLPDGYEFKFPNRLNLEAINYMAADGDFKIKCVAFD
human Gal-3 (hGal-3), sequence (P17931 whole entry): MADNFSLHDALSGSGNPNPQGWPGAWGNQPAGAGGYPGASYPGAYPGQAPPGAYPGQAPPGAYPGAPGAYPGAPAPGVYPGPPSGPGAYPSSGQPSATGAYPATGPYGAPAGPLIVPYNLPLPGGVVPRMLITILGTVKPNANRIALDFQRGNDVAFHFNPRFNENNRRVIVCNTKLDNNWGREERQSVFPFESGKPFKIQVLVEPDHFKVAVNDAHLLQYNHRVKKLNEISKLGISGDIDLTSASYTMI

On to `CO[C@@H]1[C@@H](n2cc(-c3ccc4nc(C)sc4c3)nn2)[C@@H](O)[C@@H](CO)O[C@H]1C(=O)N(c1cc(Cl)cc(Cl)c1)[C@H]1CCCC[C@@H]1O` [Example 191, (2R,3R,4S,5R,6R)-N-(3,5-dichlorophenyl)-5-hydroxy-N-((1S,2S)-2-hydroxycyclohexyl)-6-(hydroxymethyl)-3-methoxy-4-(4-(2-methylbenzo[d]thiazol-6-yl)-1H-1,2,3-triazol-1-yl)tetrahydro-2H-pyran-2-carboxamide], for which the values for the IC50 on human Gal-3 (hGal-3) and at human Gal-1 (hGal-1) were 0.041 µM and 1.14 µM, respectively.
On the same counts, the results for `CO[C@@H]1[C@@H](n2cc(-c3ccc(F)c4ccccc34)nn2)[C@@H](O)[C@@H](CO)O[C@H]1C(=O)N(c1cc(Cl)cc(Cl)c1)[C@H]1CCCC[C@@H]1O` [Example 192, (2R,3R,4S,5R,6R)-N-(3,5-dichlorophenyl)-4-(4-(4-fluoronaphthalen-1-yl)-1H-1,2,3-triazol-1-yl)-5-hydroxy-N-((1S,2S)-2-hydroxycyclohexyl)-6-(hydroxymethyl)-3-methoxytetrahydro-2H-pyran-2-carboxamide] are 0.021 µM and 1.14 µM.
For `CO[C@@H]1[C@@H](n2cc(-c3nc(Cl)cs3)nn2)[C@@H](O)[C@@H](CO)O[C@H]1C(=O)N(c1cccc(F)c1F)[C@H]1CCCC[C@@H]1O` [Example 193, (2R,3R,4S,5R,6R)-4-(4-(4-chlorothiazol-2-yl)-1H-1,2,3-triazol-1-yl)-N-(2,3-difluorophenyl)-5-hydroxy-N-((1S,2S)-2-hydroxycyclohexyl)-6-(hydroxymethyl)-3-methoxytetrahydro-2H-pyran-2-carboxamide], in that order: 0.143 µM and 0.605 µM.
As for `CO[C@@H]1[C@@H](n2cc(-c3cc(F)c(F)c(F)c3)nn2)[C@@H](O)[C@@H](CO)O[C@H]1C(=O)N(c1ccccn1)[C@H]1CCCC[C@@H]1O` [Example 194, (2R,3R,4S,5R,6R)-5-hydroxy-N-((1S,2S)-2-hydroxycyclohexyl)-6-(hydroxymethyl)-3-methoxy-N-(pyridin-2-yl)-4-(4-(3,4,5-trifluorophenyl)-1H-1,2,3-triazol-1-yl)tetrahydro-2H-pyran-2-carboxamide], the IC50 was found to be 0.011 µM on human Gal-3 (hGal-3) and 2.74 µM on human Gal-1 (hGal-1).
For `O=C(O)CO[C@@H]1[C@@H](n2cc(-c3cc(F)c(F)c(F)c3)nn2)[C@@H](O)[C@@H](CO)O[C@H]1C(=O)N(c1cc(Cl)cc(Cl)c1)[C@H]1CCCC[C@@H]1O` [Example 195, 2-(((2R,3R,4S,5R,6R)-2-((3,5-dichlorophenyl)((1S,2S)-2-hydroxycyclohexyl)carbamoyl)-5-hydroxy-6-(hydroxymethyl)-4-(4-(3,4,5-trifluorophenyl)-1H-1,2,3-triazol-1-yl)tetrahydro-2H-pyran-3-yl)oxy)acetic acid], in that order: 0.009 µM and 0.096 µM.
For `CO[C@@H]1[C@@H](n2cc(-c3cc(F)c(F)c(F)c3)nn2)[C@@H](O)[C@@H](CO)O[C@H]1C(=O)N(c1ccc2ccccc2c1)[C@H]1CCCC[C@@H]1O` [Example 197, (2R,3R,4S,5R,6R)-5-hydroxy-N-((1S,2S)-2-hydroxycyclohexyl)-6-(hydroxymethyl)-3-methoxy-N-(naphthalen-2-yl)-4-(4-(3,4,5-trifluorophenyl)-1H-1,2,3-triazol-1-yl)tetrahydro-2H-pyran-2-carboxamide], in that order: 0.097 µM and 6.83 µM.
For `CO[C@@H]1[C@@H](n2cc(-c3cc(F)c(F)c(F)c3)nn2)[C@@H](O)[C@@H](CO)O[C@H]1C(=O)N(c1cccc2ccccc12)[C@H]1CCCC[C@@H]1O` [Example 198, (2R,3R,4S,5R,6R)-5-hydroxy-N-((1S,2S)-2-hydroxycyclohexyl)-6-(hydroxymethyl)-3-methoxy-N-(naphthalen-1-yl)-4-(4-(3,4,5-trifluorophenyl)-1H-1,2,3-triazol-1-yl)tetrahydro-2H-pyran-2-carboxamide], in that order: 0.117 µM and over 100 µM.
